Laboratory results published in ChEMBL document CHEMBL5352396, “Synthesis and biological evaluation of novel FiVe1 derivatives as potent and selective agents for the treatment of mesenchymal cancers” (Eur J Med Chem, 2022).
The source made the active and inactive calls. The rule behind the calls is not given here.

Experiments:
[1] = Half life in mouse at 25 mg/kg, po by LC-MS/MS analysis; assay type: ADME, organism-based; conditions: in vivo
[2] = AUC (0 to infinity) in mouse at 25 mg/kg, po by LC-MS/MS analysis; assay type: ADME, organism-based; set-up: dose 25 mg/kg, route po; conditions: in vivo
[3] = Drug metabolism in mouse hepatocytes assessed as oxygenation by measuring M5 metabolite formation; assay type: ADME, cell-based, Hepatocyte
MCF7 = assay: cells; conditions: Homo sapiens, MCF7, 72 h
[4] = Drug metabolism in mouse hepatocytes assessed as dealkylation by measuring M1 metabolite formation; assay type: ADME, cell-based, Hepatocyte
Vimentin (Homo sapiens) [5] = biological target: Vimentin (Homo sapiens) (UniProt P08670); assay: Induction of Vimentin phosphorylation in human RD cells at 1 uM incubated for 24 hrs by Western blot analysis; assay type: cell-based; conditions: filed as activator
[6] = AUC (0 to last) in mouse at 25 mg/kg, po by LC-MS/MS analysis; assay type: ADME, organism-based; set-up: dose 25 mg/kg, route po; conditions: in vivo
RD = assay: cells; conditions: Homo sapiens, 72 h
[7] = Drug metabolism in mouse hepatocytes assessed as oxygenation by measuring M6 metabolite formation; assay type: ADME, cell-based, Hepatocyte
[8] = Metabolic stability in CD-1 mouse liver microsomes assessed as half life at 100 uM measured upto 60 mins in presence of NADPH by LC-MS/MS analysis; assay type: ADME, Microsome; conditions: mouse, microsomes, 1 h, 100 µM
[9] = Tmax in mouse at 25 mg/kg, po by LC-MS/MS analysis; assay type: ADME, organism-based; conditions: in vivo
Vimentin (Homo sapiens) [10] = biological target: Vimentin (Homo sapiens) (UniProt P08670); assay: Induction of Vimentin phosphorylation in human GCT cells at 100 nM incubated for 24 hrs by Western blot analysis; assay type: cell-based
[11] = Drug metabolism in mouse hepatocytes assessed as dealkylation by measuring M3 metabolite formation; assay type: ADME, cell-based, Hepatocyte
[12] = Drug metabolism in mouse hepatocytes assessed as dealkylation by measuring M4 metabolite formation; assay type: ADME, cell-based, Hepatocyte
Vimentin (Homo sapiens) [13] = biological target: Vimentin (Homo sapiens) (UniProt P08670); assay: Induction of Vimentin phosphorylation in human HT-1080 cells at 1 uM incubated for 24 hrs by Western blot analysis; assay type: cell-based; conditions: filed as activator
[14] = Metabolic stability in CD-1 mouse liver microsomes assessed as parent compound remaining at 100 uM measured after 60 mins in presence of NADPH by LC-MS/MS analysis; assay type: ADME, Microsome; conditions: read-out: Stability
[15] = Cmax in mouse at 25 mg/kg, po by LC-MS/MS analysis; assay type: ADME, organism-based; set-up: dose 25 mg/kg, route po; conditions: in vivo
Vimentin (Homo sapiens) [16] = biological target: Vimentin (Homo sapiens) (UniProt P08670); assay: Induction of Vimentin phosphorylation in human RD cells at 100 nM incubated for 24 hrs by Western blot analysis; assay type: cell-based
[17] = Metabolic stability in CD-1 mouse liver microsomes assessed as intrinsic clearance at 100 uM measured upto 60 mins in presence of NADPH by LC-MS/MS analysis; assay type: ADME, Microsome; conditions: mouse, microsomes, 1 h, 100 µM
[18] = Kinetic solubility of the compound in DPBS buffer at pH 7.4 incubated for 16 hrs under shaking condition by HPLC analysis; assay type: physicochemical; conditions: read-out: Kinetic_solubility
Vimentin (Homo sapiens) [19] = biological target: Vimentin (Homo sapiens) (UniProt P08670); assay: Induction of Vimentin phosphorylation in human HT-1080 cells at 100 nM incubated for 24 hrs by Western blot analysis; assay type: cell-based
HT-1080 = assay: cells; conditions: Homo sapiens, HT-1080, 72 h
[20] = Drug metabolism in mouse hepatocytes assessed as dealkylation and oxygenation by measuring M2 metabolite formation; assay type: ADME, cell-based, Hepatocyte
[21] = Drug metabolism in mouse hepatocytes assessed as oxygenation by measuring M7 metabolite formation; assay type: ADME, cell-based, Hepatocyte
GCT = assay: cells; conditions: Homo sapiens, 72 h
Vimentin (Homo sapiens) [22] = biological target: Vimentin (Homo sapiens) (UniProt P08670); assay: Induction of Vimentin phosphorylation in human GCT cells at 1 uM incubated for 24 hrs by Western blot analysis; assay type: cell-based; conditions: filed as activator

Vimentin (Homo sapiens), sequence (P08670 whole entry): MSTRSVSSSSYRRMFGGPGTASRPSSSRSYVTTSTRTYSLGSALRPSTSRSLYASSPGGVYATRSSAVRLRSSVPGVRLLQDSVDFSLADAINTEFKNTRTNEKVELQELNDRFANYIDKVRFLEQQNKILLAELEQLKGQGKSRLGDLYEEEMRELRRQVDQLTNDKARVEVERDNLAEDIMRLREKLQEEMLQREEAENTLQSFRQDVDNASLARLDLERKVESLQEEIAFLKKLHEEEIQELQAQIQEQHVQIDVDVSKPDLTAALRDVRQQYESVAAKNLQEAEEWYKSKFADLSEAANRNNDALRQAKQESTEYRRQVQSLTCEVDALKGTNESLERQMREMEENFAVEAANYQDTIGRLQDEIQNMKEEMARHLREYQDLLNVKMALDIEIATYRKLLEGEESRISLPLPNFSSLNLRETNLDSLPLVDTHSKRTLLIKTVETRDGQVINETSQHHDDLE

For `Clc1cccc(N2CCN(c3cnnc4c(Cl)cccc34)CC2)c1`, the half-life [1] was 274 min, the AUC(0-inf) [2] was 339 ng·h/mL and the Drug metabolism [3] was “Metabolite_Detected”. The IC50 (MCF7) was greater than 20000 nM, the Drug metabolism [4] was “Metabolite_Detected” and the Activity (Vimentin (Homo sapiens) [5]) was “Active”. For the same compound, the AUC(0-t) [6] was 310 ng·h/mL, the IC50 (RD) was 3100 nM and the Drug metabolism [7] was “Metabolite_Detected”. The t1/2 [8] was 11.9 min, the Tmax [9] was 30 min and the Activity (Vimentin (Homo sapiens) [10]) was “inactive”. The Drug metabolism [11] was “Metabolite_Detected”, the Drug metabolism [12] was “Metabolite_Detected” and the Activity (Vimentin (Homo sapiens) [13]) was “Active”. For the same compound, the remaining at 1 h, 100 µM [14] was 3.2%, the Cmax [15] was 110 ng/mL and the Activity (Vimentin (Homo sapiens) [16]) was “inactive”. The microsomal intrinsic clearance [17] was 116.1 µL/min/mg, the solubility kinetic at 16 h [18] was less than 1 µM and the Activity (Vimentin (Homo sapiens) [19]) was “inactive”. For the same compound, the IC50 (HT-1080) was 1560 nM, the Drug metabolism [20] was “Metabolite_Detected” and the Drug metabolism [21] was “Metabolite_Detected”. The IC50 (GCT) was 1690 nM and the Activity (Vimentin (Homo sapiens) [22]) was “Active”.
